Measurements taken from patent publication US6133304A, “ACE inhibitor-MMP inhibitor combinations” (priority 2000, dated 2000).

Assays:
[1] = test system: fibroblast; conditions: tissue culture cells; cited from earlier work
[2] = in vivo; conditions: pig, po, 2 mg/kg/day
[3] = test system: spontaneously hypertensive heart failure (SHHF) rats; assay: 8-month progression study in SHHF rats (Example 1); assay type: in vivo, rat; conditions: for LVEDP (left ventricular end-diastolic pressure) / LVESP (left ventricular end-systolic pressure) / LVV-OP: SHHF rats, 8 months in diet; for LVEDP (left ventricular end-diastolic pressure) / LVESP (left ventricular end-systolic pressure): PD 166793 5 mg/kg/day, quinapril 10 mg/kg/day or both; for LVV-OP: left ventricular pressure volume relations, KCl arrested heart
Protocol: Five groups of rats (n=14 per group) were tested: 17-month-old normotensive Fischer control Rats (F-1 7); vehicle treated 17-month-old SHHF Rats (SHHF-17); PD 166793-0000 (Lot Y) SHHF Rats (SHHF-793); Quinapril (PD 109452-0002, Lot Y) SHHF Rats (SHHF-Q); PD 166793 +Quinapril SHHF Rats (SHHF-793Q). Naive Fischer rats were acclimatized 2 weeks prior to testing. All SHHF rats were maintained in-house, administered drug for 8 months, and then cardiovascular tests were performed and tissue samples taken. The primary endpoint for the study was the prevention of cardiac dilation as determined by left ventricular pressure volume relations in the excised KCI arrested heart.
Drug Administration: All SHHF rats were fed powdered rat chow for 1 week prior to drug administration, and daily food consumption was measured by weighing the foodcups. Drug was added to powdered rat chow so that rats consumed their daily dose of PD 166793 (5 mg/kg/day), quinapril (10 mg/kg/day), or both drugs in combination. Food consumption was monitored twice weekly.
Terminal Cardiovascular Test: Rats were anesthetized with isoflurane for terminal testing. Isoflurane was administered using a mask until the rats are anesthetized and a tracheotomy performed. The rats were respired using a ventilator (A.D.S. 1000, Engler Engineering Corp., Hialeah, Fla.). Cardiac function was assessed in closed-chest rats by measuring LV dP/dt, LV end-diastolic pressure (EDP), heart rate, and aortic blood pressure using a Millar pressure transducer inserted through the right carotid. Physiological data was recorded at 500 Hz, and a logging rate of 5 seconds was used to average data. […] Baseline measurements were made when the rats reached a stable plateau of anesthesia. Normotensive rats had their blood pressure increased by partial occlusion of the aorta so that cardiovascular function could be assessed at a pressure of 180 mmHg, the projected blood pressure of SHHF rats. Approximately 4 to 5 mL of blood were withdrawn in ice-cold syringes and then transferred to ice-cold EDTA tubes. Blood was centrifuged at 4500 RPM for 10 minutes so that plasma could be stored for drug measurements, and measuring collagen breakdown products. The heart was arrested with KCl and rapidly excised. A glass cannula was inserted through the aorta into the LV chamber, and secured into place by a ligature around the atrio-ventricular groove. Cardiac dilation was measured by generating left ventricular pressure volume (PV) curves. The PV curves was generated by evacuating the LV of saline and then filling the LV at a fixed rate using a programmable pump set at a 1 mL/min flow rate. The PV curves were recorded on a Po-Ne-Mah digital data acquisition system. A 2 to 3 mm cross-section of the heart was removed (at the level of the papillary muscles). The remainder of the heart was rapidly divided into RV and LV tissue that was frozen in liquid N2 for subsequent weighing and biochemical analysis. The cross-sections were fixed in buffered formalin for histology. This procedure will allow LV, and RV weights to be determined and hypertrophy to be assessed.

[4] = PD 166793 plasma levels in SHHF rats (Example 1); assay type: in vivo; conditions: rat, po, 5 mg/kg/day PD 166793 in diet, 8 months
Protocol: Drug Administration: […] Food consumption was monitored twice weekly. Terminal Cardiovascular Test: Rats were anesthetized with isoflurane for terminal testing. Isoflurane was administered using a mask until the rats are anesthetized and a tracheotomy performed. The rats were respired using a ventilator ([…] Engineering Corp., Hialeah, Fla.). Cardiac function was assessed in closed-chest rats by measuring LV dP/dt, LV end-diastolic pressure (EDP), heart rate, and aortic blood pressure using a Millar pressure transducer inserted through the right carotid. Physiological data was recorded at 500 Hz, and a logging rate of 5 seconds was used to average data. […] Baseline measurements were made when the rats reached a stable plateau of anesthesia. […] Approximately 4 to 5 mL of blood were withdrawn in ice-cold syringes and then transferred to ice-cold EDTA tubes. […] The heart was arrested with KCl and rapidly excised. A glass cannula was inserted through the aorta into the LV chamber, and secured into place by a ligature around the atrio-ventricular groove. Cardiac dilation was measured by generating left ventricular pressure volume (PV) curves. […] The PV curves were recorded on a Po-Ne-Mah digital data acquisition system. […] This procedure will allow LV, and RV weights to be determined and hypertrophy to be assessed.

[5] = test system: pigs subjected to rapid pacing; assay: rapid-paced pig model of heart failure (Example 2); assay type: in vivo; conditions: for LV End-Systolic Pressure / Pulmonary Vascular Resistance / Systemic Vascular Resistance / Plasma Norepinephrine: Day 21 of pacing, 793 2 mg/kg/day PO, F […] BID PO; for LV End-Systolic Pressure / Pulmonary Vascular Resistance / Systemic Vascular Resistance: pacer off; for LV End-Systolic Pressure / Plasma Norepinephrine: spread printed in the next line; for Pulmonary Vascular Resistance / Systemic Vascular Resistance: spread printed in the next lines; for LV end-diastolic dimension (dilation), in words / LV wall stress, in words: echocardiography, 3-week pacing period
[6] = test system: spontaneously hypertensive heart failure (SHHF) rats; assay: previous 4-month experiment in SHHF rats; assay type: in vivo, rat; conditions: for cardiac dilation, in words / left ventricular (LV) systolic function, in words: 4 months
[7] = target: MMP-3 (stromelysin) (Homo sapiens, UniProt P08254); assay: thiopeptolide substrate hydrolysis assay, MMP-3; assay type: biochemical; conditions: pH 6.0, 22° C., read-out: IC50 MMP3
Protocol: The assays measure the amount by which a test compound reduces the hydrolysis of a thiopeptolide substrate caused by a matrix metalloproteinase enzyme.
Thiopeptolide substrates show virtually no decomposition or hydrolysis in the absence of a matrix metalloproteinase enzyme. A typical thiopeptolide substrate commonly utilized for assays is Ac-Pro-Leu-Gly-thioester-Leu-Leu-Gly-O Et. […] Assays are carried out with and without matrix metalloproteinase inhibitor compounds, and the amount of hydrolysis is compared for a determination of inhibitory activity of the test compounds.

[8] = relative to untreated rapid-paced pigs, FIG. 5

Chain of MMP-3 (stromelysin) (P08254 100-272 limits assumed): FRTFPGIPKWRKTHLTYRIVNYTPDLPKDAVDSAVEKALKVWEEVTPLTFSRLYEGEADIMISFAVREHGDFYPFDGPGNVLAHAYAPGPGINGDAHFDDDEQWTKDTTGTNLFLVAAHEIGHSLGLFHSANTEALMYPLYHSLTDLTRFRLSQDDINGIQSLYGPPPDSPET

Row | SMILES | LVEDP (left ventricular end-diastolic pressure) [3] [mmHg] | LVESP (left ventricular end-systolic pressure) [3] [mmHg] | LVV-OP [3] [µL] | LV End-Systolic Pressure [5] [mmHg] | Pulmonary Vascular Resistance [5] [dynes*s*cm^-5] | Systemic Vascular Resistance [5] [dynes*s*cm^-5] | Plasma Norepinephrine [5] [pg/mL] | LV end-diastolic dimension (dilation), in words [5] | LV wall stress, in words [5] | cardiac dilation, in words [6] | left ventricular (LV) systolic function, in words [6] | also measured
1 | NNC(=O)c1ccccc1 [Benzoic hydrazide, benzoic hydrazide] | – | – | – | – | – | – | – | – | – | – | – | collagen synthesis, in words [1]: suppress collagen synthesis; fibroblast proliferation, in words [1]: suppress collagen synthesis and fibroblast proliferation
2 | CC(C)C(NS(=O)(=O)c1ccc(-c2ccc(Br)cc2)cc1)C(=O)O (stereo not shown) [PD 166793, 2-(4'-bromobiphenyl-4-sulfonylamino)-3-methyl-butyric acid] | 18 ± 3 | 188 ± 8 | 820 ± 58 | 110 | 417 | 2784 | 736 | reduce wall stress and end diastolic dimension | reduce wall stress | significantly reducing cardiac dilation | maintaining left ventricular (LV) systolic function | concentration at 1 h [2]: 10800 ± 1200 ng/mL; concentration at 5840 h [4]: 50100 ± 7100 ng/mL; LV chamber stiffness, in words [5, 8]: increased both LV chamber stiffness and myocardial stiffness; myocardial stiffness, in words [5, 8]: increased both LV chamber stiffness and myocardial stiffness; mechanism (vasodilator, anti-hypertrophic), in words [6]: neither a vasodilator, nor an anti-hypertrophic
3 | CC(C)CC(CC(=O)NO)C(=O)N[C@@H](CC(C)C)C(=O)N[C@@H](Cc1ccccc1)C(N)=O (stereo partly shown) [U24522] | – | – | – | – | – | – | – | – | – | – | – | IC50 [7]: 20 nM
4 | CCC(=O)O[C@@H](O[P@](=O)(CCCCc1ccccc1)CC(=O)N1C[C@H](C2CCCCC2)C[C@H]1C(=O)O)C(C)C [fosinopril] | – | – | – | 100 | 266 | 1529 | 618 | reduce wall stress and end diastolic dimension | reduce wall stress | – | – | systolic function, slope of circumferential velocity over end-systolic stress relation (Vcfc-ES Stress), in words ([5]; compared to nontreated rapid-paced animals, FIG. 4): significantly improved systolic function; LV end-diastolic dimension (dilation), in words ([5]; listed as Fosinopril): more effective than the PD 166793 in reducing dilation; systolic function measured as preload recruitable stroke work (PRSW), in words ([5]; rapid-paced pigs, FIG. 3): improved systolic function to the greatest extent
5 | CCOC(=O)[C@H](CCc1ccccc1)N[C@@H](C)C(=O)N1Cc2ccccc2C[C@H]1C(=O)O [quinapril] | 17 ± 4 | 190 ± 7 | 603 ± 99 | – | – | – | – | – | – | A similar effect was also observed | A similar effect was also observed | LV weight, in words ([3]; compared to the vehicle control group): reduced
